Patent publication US11026942B2, “Agent for preventing and/or treating Alzheimer's disease” (KYOTO UNIVERSITY, priority 2015, dated 2021)

Assays:
Assay type in all cases: cell-based, human
[1] = system: Aβ42/40 ratio; assay: Aβ42/40 ratio in FAD1 iPS cell-derived nerve cells (primary/secondary screening, dose dependency); conditions: secondary screening
Source text: (§1) To perform induction from iPS cells to the cerebral cortex nerve early and with high reproducibility, iPS cells introduced with human Neurogenin 2 gene (NGN2) linked to doxycycline-inducible promoter by using PiggyBac were used (FIG. 1a, FIG. 1b, FIG. 4a and FIG. 4b). IPS cells prepared from 4 patients with familial Alzheimer's disease (FAD), 2 patients with sporadic Alzheimer's disease (SAD) and 4 healthy individuals (HC) were used. The iPS cells were established by the method described in Okita K et al., Nature.
(§2) Structural formulas (those in the form of salt or halide are also described as free form) and the general names of the candidate compounds are shown in Table 1.
(§3) To further study reproducibility of the candidate drugs obtained by the primary screening, secondary screening was conducted. In addition to Aβ40, Aβ42, Aβ42/40 ratio, Aβ38, Aβ43, sAPPα, sAPPβ were also studied and each numerical value was obtained.

[2] = system: Aβ38; assay: Aβ38 in FAD1 iPS cell-derived nerve cells (secondary screening); design: scale not given here
Method: as §3

[3] = system: Aβ43; assay: Aβ43 in FAD1 iPS cell-derived nerve cells (secondary screening); design: scale not given here
Method: as §3

[4] = system: Aβ42; assay: Aβ42 in FAD1 iPS cell-derived nerve cells (primary/secondary screening, dose dependency); conditions: secondary screening, FAD1 iPS cell-derived nerve cells, numerical value (Aβ change rate)
Source text: as §1, §2, §3

[5] = system: sAPPβ; assay: sAPPβ in FAD1 iPS cell-derived nerve cells (secondary screening); design: sAPPβ: scale not given here; conditions: secondary screening, FAD1 iPS cell-derived nerve cells
Method: as §3

[6] = system: sAPPα; assay: sAPPα in FAD1 iPS cell-derived nerve cells (secondary screening); design: scale not given here; conditions: secondary screening, FAD1 iPS cell-derived nerve cells
Method: as §3

| SMILES | Ratio Aβ42/40 [1] | Aβ38 [2] | Aβ43 [3] | Aβ42 [4] | sAPPβ [5] | sAPPα [6] |
| --- | --- | --- | --- | --- | --- | --- |
| CN(C/C=C/C#CC(C)(C)C)Cc1cccc2ccccc12 [compound 5, TERBINAFINE] | 0.96 | 1.06 | 0.94 | 0.94 | 1.06 | 0.98 |
| O=c1oc2cc(O)ccc2s1 [compound 92, TIOXOLONE] | 0.83 | 0.76 | 0.67 | 0.55 | 0.63 | 0.76 |
| CNC(=C[N+](=O)[O-])NCCSCc1csc(CN(C)C)n1 [compound 78, NIZATIDINE] | 0.98 | 1.3 | 1.15 | 1.04 | 1.29 | 0.97 |
| O=C1c2ccccc2C(=O)C1c1ccc(Cl)cc1 [compound 127, CHLORINDIONE] | 0.85 | 0.92 | 0.87 | 0.79 | 0.67 | 0.74 |
| Oc1ccc(OCc2ccccc2)cc1 [compound 23, MONOBENZONE] | 0.91 | 1.05 | 0.89 | 0.82 | 0.56 | 0.74 |
| Nc1ccc(C(=O)O)c(O)c1 [compound 50, AMINOSALICYLATE] | 1.08 | 1.2 | 1.22 | 1.03 | 1.31 | 1 |
| CN1CCCN=C1COC(=O)C(O)(c1ccccc1)C1CCCCC1 (stereo not drawn) [compound 1, OXYPHENCYCLIMINE] | 1.03 | 1.08 | 0.98 | 0.99 | 1 | 0.91 |
| COc1cc2nc(N(C)CCCNC(=O)C3CCCO3)nc(N)c2cc1OC (stereo not drawn) [compound 81, ALFLUZOSIN] | 0.87 | 1.22 | 1.03 | 0.96 | 0.97 | 0.9 |
| O=C(NC(Cc1cc(=O)[nH]c2ccccc12)C(=O)O)c1ccc(Cl)cc1 (stereo not drawn) [compound 71, REBAMIPIDE] | 0.85 | 0.97 | 0.78 | 0.79 | 0.66 | 0.8 |
| O=C1CCc2cc(OCCCCc3nnnn3C3CCCCC3)ccc2N1 [compound 107, CILOSTAZOL] | 0.86 | 1.01 | 0.82 | 0.85 | 0.68 | 0.78 |
| CCOC(=O)c1ccc(N)cc1 [compound 51, BENZOCAINE] | 1.03 | 1.05 | 0.99 | 0.94 | 0.87 | 0.8 |
| CCn1cc(C(=O)O)c(=O)c2cnc(N3CCCC3)nc21 [compound 69, PIROMIDIC ACID] | 0.86 | 1.01 | 0.79 | 0.78 | 0.69 | 0.86 |
| O=S(=O)(O)c1cc(I)c(O)c2ncccc12 [compound 35, CHINIOFON] | 0.86 | 1.05 | 0.79 | 0.83 | 0.6 | 0.71 |
| CC(=O)OC1CCC2(C)C(=CCC3C4CCC(=O)C4(C)CCC32)C1 (stereo not drawn) [compound 109, PRASTERONE ACETATE] | 0.7 | 0.9 | 0.85 | 0.68 | 0.55 | 0.69 |
| O=C(CCNNC(=O)c1ccncc1)NCc1ccccc1 [compound 34, NIALAMIDE] | 0.87 | 1.16 | 0.97 | 0.92 | 1.13 | 0.92 |
| CNCCCN1c2ccccc2CCc2ccccc21 [compound 13, DESIPRAMINE] |  |  | 0.9 | 0.94 | 1.01 | 0.83 |
| CN1C(=O)CC[C@H]1c1cccnc1 [compound 10, COTININE] | 0.94 | 1.08 | 0.87 | 0.87 | 0.81 | 0.81 |
| CC(C(O)c1ccc(O)cc1)N1CCC(Cc2ccccc2)CC1 (stereo not drawn) [compound 44, IFENPRODIL] | 0.96 | 1.23 | 1.03 | 1 | 1.09 | 1.13 |

| SMILES | Ratio Aβ42/40 [1] | Aβ38 [2] | Aβ43 [3] | Aβ42 [4] | sAPPβ [5] | sAPPα [6] |
| --- | --- | --- | --- | --- | --- | --- |
| CCC[C@H](N[C@@H](C)C(=O)N1[C@H](C(=O)O)C[C@@H]2CCCC[C@@H]21)C(=O)OCC [compound 64, PERINDOPRIL ERBUMINE] | 0.85 | 1.01 | 0.91 | 0.81 | 0.53 | 0.7 |
| c1ccc(-c2ccc(C(c3ccccc3)n3ccnc3)cc2)cc1 (stereo not drawn) [compound 27, BIFONAZOLE] | 0.84 | 1.06 | 0.99 | 0.84 | 1.19 | 1.04 |
| COc1cc2c(cc1OC)[C@@]13CCN4CC5=CCO[C@H]6CC(=O)N2[C@H]1[C@H]6[C@H]5C[C@H]43 [compound 106, BRUCINE] | 1.04 | 1.13 | 0.87 | 0.98 | 0.85 | 0.84 |
| CCCc1nc(C(C)(C)O)c(C(=O)OCc2oc(=O)oc2C)n1Cc1ccc(-c2ccccc2-c2nn[nH]n2)cc1 [compound 61, OLMESARTAN MEDOXOMIL] | 0.86 | 0.85 | 0.9 | 0.82 | 0.86 | 0.8 |
| CC(C)[N+](C)(CCC(C(N)=O)(c1ccccc1)c1ccccc1)C(C)C [compound 19, ISOPROPAMIDE] | 1.24 | 1.09 | 0.95 | 0.88 | 0.74 | 0.84 |
| CC(C)(C)NCC(O)c1cc(Cl)c(N)c(Cl)c1 (stereo not drawn) [compound 85, CLENBUTEROL] | 0.85 | 1.17 | 0.94 | 0.88 | 0.84 | 0.86 |
| CC(C)(C)NC[C@H](O)c1ccc(O)c(CO)c1 [compound 73, LEVALBUTEROL] | 0.92 | 0.99 | 0.91 | 0.84 | 0.66 | 0.74 |
| FC(F)(F)COCC(F)(F)F [compound 130, FLUROTHYL] | 0.85 | 1.03 | 0.81 | 0.8 | 0.69 | 0.79 |
| COc1cc(NC(C)CCCN)c2ncccc2c1 (stereo not drawn) [compound 77, PRIMAQUINE] | 0.95 | 1.07 | 0.89 | 0.87 | 0.85 | 0.79 |
| NC(=O)NC1NC(=O)NC1=O (stereo not drawn) [compound 116, ALLANTOIN] | 0.96 | 1.07 | 1.13 | 0.88 | 0.93 | 1.05 |
| CC[C@H](C)C(=O)O[C@H]1C[C@@H](C)C=C2C=C[C@H](C)[C@H](CC[C@@H]3C[C@@H](O)CC(=O)O3)[C@H]21 [compound 46, LOVASTATIN] | 0.88 | 1.17 | 1.09 | 0.98 | 1.06 | 1.01 |
| Cc1cccc(O)c1 [compound 89, CRESOL] | 0.91 | 0.93 | 0.89 | 0.81 | 0.58 | 0.71 |
| O=C(O)COCCN1CCN([C@H](c2ccccc2)c2ccc(Cl)cc2)CC1 [compound 30, LEVOCETIRIZINE] |  | 0.98 | 0.85 | 0.76 | 0.93 | 0.93 |
| CN(C)CCOC(c1ccccc1)c1ccccc1 [compound 14, diphenhydramine] |  | 1.06 | 0.97 | 0.98 | 1.02 | 0.97 |
| CN(C)CCCN1c2ccccc2CCc2ccccc21 [compound 17, IMIPRAMINE] |  | 1.12 | 1.27 |  | 1.2 |  |
| CN1[C@@H]2CC[C@@H]1CC(OC(=O)C(O)c1ccccc1)C2 (stereo partly drawn) [compound 16, HOMATROPINE] |  | 1.22 | 1.09 | 1.04 | 1.24 | 1.15 |
| CCN(CC)CCOC(=O)C1(C2CCCCC2)CCCCC1 [compound 104, DICYCLOMINE] |  | 1.08 | 0.82 | 0.93 | 0.84 | 0.81 |
